Target: T1, Ubiquitin carboxyl-terminal hydrolase 30 (Homo sapiens, UniProt Q70CQ3)
T1 sequence (Q70CQ3 whole entry): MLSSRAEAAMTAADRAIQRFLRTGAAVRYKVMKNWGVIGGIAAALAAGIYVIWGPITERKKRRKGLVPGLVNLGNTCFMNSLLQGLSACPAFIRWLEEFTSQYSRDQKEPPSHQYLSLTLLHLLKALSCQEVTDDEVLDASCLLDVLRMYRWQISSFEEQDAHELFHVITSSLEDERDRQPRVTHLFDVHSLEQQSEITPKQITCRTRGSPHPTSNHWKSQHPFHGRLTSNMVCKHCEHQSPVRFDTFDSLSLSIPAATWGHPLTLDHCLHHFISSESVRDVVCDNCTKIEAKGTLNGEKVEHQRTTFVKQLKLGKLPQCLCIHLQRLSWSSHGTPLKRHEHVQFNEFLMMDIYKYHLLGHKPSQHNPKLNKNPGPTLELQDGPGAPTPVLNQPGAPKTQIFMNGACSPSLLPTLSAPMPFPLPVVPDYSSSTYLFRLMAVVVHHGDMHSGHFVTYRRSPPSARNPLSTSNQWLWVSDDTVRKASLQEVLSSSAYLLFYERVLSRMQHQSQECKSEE
Assay: Biochemical Assay
Experimental: Dilution plates were prepared at 21 times the final concentration (2100 μM for a final concentration of 100 μM) in 50% DMSO in a 96-well polypropylene V-bottom plate (Greiner #651201). A typical 8-point dilution series to be 100, 30, 10, 3, 1, 0.3, 0.1, 0.03 μM final. Reactions were performed in duplicate in black 384 well plates (small volume, Greiner 784076) in a final reaction volume of 21 μl. Either 1 μl of 50% DMSO or diluted compound was added to the plate. USP30 was diluted in reaction buffer (40 mM Tris, pH 7.5, 0.005% Tween 20, 0.5 mg/ml BSA, 5 mM beta-mercaptoethanol) to the equivalent of 0.05 μl/well and 10 μl of diluted USP30 was added to the compound. Enzyme and compound were incubated for 30 min at room temp. Reactions were initiated by the addition of 50 nM of TAMRA labelled peptide linked to ubiquitin via an iso-peptide bond as fluorescence polarisation substrate. Reactions were read immediately after addition of substrate and following a 2 hr incubation at room temperature. Readings were performed on a Pherastar Plus (BMG Labtech). λ Excitation 540 nm; λ Emission 590 nm.

N#CN1CC[C@H](CNC(=O)c2ncc(-c3ccccc3)s2)C1 [US11130748, Example 61]
IC50: in the range around 550 nM

From BindingDB's records for patent US11130748 (Mission Therapeutics, 2021)
